Results published in patent US20150259371A1, “METHODS AND COMPOUNDS FOR INHIBITING GLYCOSYLTRANSFERASES” (SIMON FRASER UNIVERSITY, priority 2010, published 2015).
Entries after “also recorded” stand apart in the source; their conditions may differ.

Key:
OGT = test: Western blot of OGT levels in treated COS-7 cells; type: cell-based, African green monkey; conditions: 50 μM, 24 h
Description: (§1) Westernlectin blots: Samples were run on 10% SDS polyacrylamide gels and transferred onto nitrocellulose membranes (Biorad). Membranes were blocked for 1 h in PBS containing 0.1% Tween-20 (PBS-T) containing 1% (unless otherwise stated) bovine serum albumin (BSA), and probed with the appropriate primary antibody or lectin in 1% BSA in PBS-T overnight at 4° C. Blots were washed for 1 hr with PBS-T, and blocked for a further 30 min with 1% BSA in PBS-T at room temperature. They were then probed with the appropriate horseradish peroxidise (HRP)-conjugated secondary antibodyprobe in 1% BSA in PBS-T at room temperature for 1 h, followed by washing in PBS-T for 1 h. Blots were developed with SuperSignal West Pico Chemiluminescent Substrate (Pierce) and exposed to CL-XPosure film (Pierce). Densitometry was performed using ImageQuant 5.2 (Molecular Dynamics), and fits to the data were made using GRAFIT^41.
(§2) Antibodieslectins: O-GlcNAc levels were assessed primarily using CTD110.6 (Covance), but RL2 (Abcam) and HGAC85 (Abcam) were also tested. Actin was probed using JLA20 (Developmental Studies Hybridoma Bank). OGA levels were assessed using a polyclonal anti-OGA antibody which was a kind gift from Dr. Gerald Hart and OGT levels using H-300 (Santa Cruz Biotechnology). nup62 was probed using mAb 414 (Covance). […]

[1] = test system: O-GlcNAc levels in COS-7 cells; test: Western blot of O-GlcNAc levels (CTD110.6) in treated COS-7 cells; type: cell-based, African green monkey
Description: Cell culture: Cells were grown in an incubator at 37° C. and 5% CO2 atmosphere. Media and serum were purchased from Invitrogen. COS-7 cells were cultured in Dulbecco's modified Eagle's medium (DMEM) with 5% fetal bovine serum (FBS), and were typically 80-100% confluent prior to experimentation. HepG2, SK-N-SH, and EMEG32^−/− cells were cultured in Dulbecco's modified Eagle's medium (DMEM) with 5% fetal bovine serum (FBS), CHO cells in DMEMF-12 with 5% FBS and PC12 cells in DMEM with 5% FBS and 5% horse serum. Prior to experimentation, PC12 cells were plated at a density of 3-4×10^5 cells10 cm plate, which had been pre-treated with 5 μgcm^2 rat tail collagen (BD Biosciences). Cells were differentiated in DMEM containing 1% horse serum, in the presence of 2.5S mouse nerve growth factor (Chemicon) at a final concentration of 25 ng mL^−1, for 4-5 days prior to treatment. Other cell lines were 80-100% confluent prior to treatment. Following treatment with (Ac-)5SGlcNAc, using various conditions, cells were washed gently with PBS, lysed in SDS loading buffer and boiled for 10 minutes. Mouse hybridoma cells (obtained from the Developmental Studies Hybridoma Bank; antibody E7 for (:1-tubulin) were cultured in RPMI40 with 10% FBS. Prior to treatment with Ac-5SGlcNAc, hybridoma cells were cultured for 2 days in RPMI40 with 5% FBS, and during treatment in RPMI40 with no serum. Cells were collected, centrifuged (800 x g, 5 min) and the supernatant removed. Cells were washed with PBS, centrifuged, the pellet resuspended in SDS loading buffer and boiled. The supernatant after centrifugation, which contained the IgG antibody produced by the cells, was used for immunoprecipitation (see below for details).
as §1
Antibodieslectins: O-GlcNAc levels were assessed primarily using CTD110.6 (Covance), but RL2 (Abcam) and HGAC85 (Abcam) were also tested. Actin was probed using JLA20 (Developmental Studies Hybridoma Bank). OGA levels were assessed using a polyclonal anti-OGA antibody which was a kind gift from Dr. Gerald Hart and OGT levels using H-300 (Santa Cruz Biotechnology). nup62 was probed using mAb 414 (Covance). Secondary antibodies employed (HRP-conjugated goat anti-mouse IgM, goat anti-mouse IgG, goat anti-chicken IgY and goat anti-rabbit IgG) were obtained from Santa Cruz Biotechnology. Biotinylated-ConA, PHA-L, SNA and MAA were purchased from EY Laboratories, and biotinylated-GNA from Vector Laboratories. HRP-conjugated streptavidin (Pierce) was used as a probe for the biotinylated lectins.
Analogues (9, 10, 17-41) were tested in COS-7 cells, dosed at a final concentration of 50 μM in DMSO for 24 h. Following treatment, cells were washed with PBS, harvested into SDS-PAGE loading buffer and analyzed by western blot using standard procedures; blots were probed with the anti-O-GlcNAc antibody (CTD 110.6).

[2] = test system: O-GlcNAc levels in CHO cells; test: Western blot of O-GlcNAc levels (CTD110.6) in treated CHO cells; type: cell-based, Chinese hamster
Description: (§3) Cell culture: Cells were grown in an incubator at 37° C. and 5% CO2 atmosphere. Media and serum were purchased from Invitrogen. COS-7 cells were cultured in Dulbecco's modified Eagle's medium (DMEM) with 5% fetal bovine serum (FBS), and were typically 80-100% confluent prior to experimentation. HepG2, SK-N-SH, and EMEG32^−/− cells were cultured in Dulbecco's modified Eagle's medium (DMEM) with 5% fetal bovine serum (FBS), CHO cells in DMEMF-12 with 5% FBS and PC12 cells in DMEM with 5% FBS and 5% horse serum. Prior to experimentation, PC12 cells were plated at a density of 3-4×10^5 cells10 cm plate, which had been pre-treated with 5 μgcm^2 rat tail collagen (BD Biosciences). Cells were differentiated in DMEM containing 1% horse serum, in the presence of 2.5S mouse nerve growth factor (Chemicon) at a final concentration of 25 ng mL^−1, for 4-5 days prior to treatment. Other cell lines were 80-100% confluent prior to treatment. […]
as §2, with “Actin was probed using JLA20 (Developmental Studies Hybridoma Bank).” left out

OGA = test: Western blot of OGA levels in treated COS-7 cells; type: cell-based, African green monkey; conditions: 50 μM, 24 h
Description: as §1, §2

[3] = test system: O-GlcNAc levels in different cell lines (COS-7, CHO, SK-N-SH, HepG2, PC12, mouse hybridoma, EMEG32-/-); test: Western blot of O-GlcNAc levels in various cell lines; type: cell-based; conditions: 50 μM (100 μM for PC12), 24 h; listed as Ac-5SGlcNAc
Description: FIG. 2L. Western blots of cell lysates from different cell lines following no (C), Ac-GlcNAc (G) or Ac-5SGlcNAc (5SG) administration at 50 μM (or 100 μM for PC12 cells) for 24 h. Upper panel, probed with anti-O-GlcNAc antibody (CTD110.6); lower panel, anti-actin antibody. Cell lines used: COS-7 (African green monkey kidney cell line), CHO (Chinese hamster ovary cell line), SK-N-SH (human neuroblastoma cell line), HepG2 (human liver carcinoma cell line), PC12 (rat adrenal medulla pheochromocytoma cell line, which terminally differentiate upon nerve growth factor treatment), mouse hybridoma cell line and EMEG32^−/− (mouse embryonic fibroblasts deficient in glucosamine-6-phosphate acetyltransferase).
as §3, with “Biosciences).” for “Biosciences). Cells were differentiated in DMEM containing 1% horse serum, in the presence of 2.5S mouse nerve growth factor (Chemicon) at a final concentration of 25 ng mL^−1, for 4-5 days prior to treatment. Other cell lines were 80-100% confluent prior to treatment.”

## CC(=O)NC1C(OC(C)=O)SC(COC(C)=O)C(OC(C)=O)C1OC(C)=O [Compound 9, N-Acetyl-1,3,4,6-tetra-O-acetyl-α-D-5-thio-glucosamine]
OGT
  OGT levels: increase in OGT levels
[1]; 50 μM, 5 days
  O-GlcNAc levels on dosing for 5 days: O-GlcNAc levels dropped in the first day and remained low
[1]; 50 μM, hours, listed as Ac-5SGlcNAc
  O-GlcNAc levels, time course: almost no O-GlcNAc being detectable after 24 hours; also recorded: O-GlcNAc levels diminish to a low level by 24 h
[1]; 24 hours
  effect on O-GlcNAc levels, dose response: decreased O-GlcNAc levels in a dose-dependent fashion
[1]; Chlorocebus sabaeus, 24 h, densitometry of western blot, read-out: EC50 for reduction of O-GlcNAc levels
  EC50: 5000 nM
[1]; after 50 μM for 24 h
  time for O-GlcNAc to return to basal levels after change to media without compound: ≤ 24 h
[2]; 50 μM, 5 days
  O-GlcNAc levels at last time point of growth curve: O-GlcNAc levels are still significantly decreased in cells treated with Ac-5SGlcNAc
[2]; Cricetulus griseus, 24 h, read-out: EC50 for reduction of O-GlcNAc levels
  EC50: 800 nM
OGA
  OGA levels: compensatory decrease in OGA levels
[3]
  O-GlcNAc levels in the cell lines tested: Various other cell lines showed equivalent responses; also recorded: near complete loss of O-GlcNAc in the cell lines tested
